Literature values as cited in publication PMC4163017 (ChemMedChem, 2014).
Values joined by “and” are separate entries in the source; they are usually repeats but may differ in a detail not shown here. Equal values may be shown once. Read-outs that look alike come from different tables or passages of the source.

Experiments:
[1] = system: ET (luc-ubi-neo/ET) Huh7 human hepatoma cells; conditions: 72 h, CytoTox-1, previously reported, ref [4]
[2] = target: IRES SLIIb RNA; conditions: read-out: KD (dissociation constant); free peptide GGHYrFK-amide; ref [4]
[3] = system: 5'-fluorescein-labeled IRES SLIIb RNA; conditions: ref [4]
[4] = system: HCV RNA replicon in ET (luc-ubi-neo/ET) Huh7 cells; conditions: HCV cellular replicon assay; ref [4]
[5] = fixed catalyst concentration with varying [RNA]

Cu-GGHYrFK-amide [1-Cu]
Cytotoxicity TC50 [1]: greater than 100 µM
Cytotoxicity TC50 ([1]; listed as [GGHYrFK-amide]-Cu^2+, 1-Cu): > 100000 nM
Kd [2]: 44 ± 2 nM
Km [3, 5]: 0.85 ± 0.09 µM
kcat [3, 5]: 0.00883 s⁻¹ and 0.00883 ± 0.00033 s⁻¹
kcat/KM [3, 5]: 10300 M⁻¹ s⁻¹
Turnover Number [3]: 32
activity in combination with recombinant interferon alpha-2b [4]: additive to slightly synergic activity

GGHYrFK-amide
Kd [2]: 44 nM
